# Results from ChEMBL document CHEMBL1150476, “Peptoid mimics of a C2-symmetric inhibitor of the HIV-1 protease” (Bioorg Med Chem Lett, 1994).
# What was measured:
# [1] = biological target: Human immunodeficiency virus type 1 protease (Human immunodeficiency virus 1) (UniProt Q72874); assay: Concentration required for inhibitory activity against HIV-1 protease at concentration of 10e-5 M by using TLNFPIS AMC as substrate; No significant activity
# [2] = biological target: Human immunodeficiency virus type 1 protease (Human immunodeficiency virus 1) (UniProt Q72874); assay: Concentration required for inhibitory activity against HIV-1 protease at concentration of 10e-5 M by using SQN-(pNO2)F-PIV as substrate; No significant activity
# [3] = biological target: Human immunodeficiency virus type 1 protease (Human immunodeficiency virus 1) (UniProt Q72874); assay: Concentration required for inhibitory activity against HIV-1 protease at concentration of 10e-5 M by using HKARVL-(pNO2)F-EAnLSNH2 as substrate; No significant activity
Activity [1],Activity [2],Activity [3],Structure (SMILES)
No significant activity,No significant activity,No significant activity,CC(C)N(CC(=O)N(Cc1ccccc1)CC(O)CN(Cc1ccccc1)C(=O)CN(C(=O)CN(C(=O)CCC(=O)O)C(C)C)C(C)C)C(=O)CN(C(=O)CCC(=O)O)C(C)C
No significant activity,No significant activity,No significant activity,CC(C)N(CC(=O)N(Cc1ccccc1)CC(O)CN(Cc1ccccc1)C(=O)CN(C(=O)CN(C(=O)OCc1ccccc1)C(C)C)C(C)C)C(=O)CN(C(=O)OCc1ccccc1)C(C)C
No significant activity,No significant activity,No significant activity,CC(C)N(CC(=O)N(Cc1ccccc1)CC(O)CN(Cc1ccccc1)C(=O)CN(C(=O)CN(C(=O)OC(C)(C)C)C(C)C)C(C)C)C(=O)CN(C(=O)OC(C)(C)C)C(C)C
No significant activity,No significant activity,No significant activity,CCCCCCCC/C=C\CCCCCCCC(=O)N(CC(=O)N(CC(=O)N(Cc1ccccc1)CC(O)CN(Cc1ccccc1)C(=O)CN(C(=O)CN(C(=O)CCCCCCC/C=C\CCCCCCCC)C(C)C)C(C)C)C(C)C)C(C)C
No significant activity,No significant activity,No significant activity,CC(C)NCC(=O)N(CC(=O)N(Cc1ccccc1)CC(O)CN(Cc1ccccc1)C(=O)CN(C(=O)CNC(C)C)C(C)C)C(C)C
